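Briefly, cells in 96-well plates were exposed to five compound concentrations for 48 h, and endpoints were estimated by linear interpolation. GI50 = concentration required for 50% inhibition of growth.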 Active and inactive are the calls of the source. Cut-off read from the data, not from the text of the source: active = GI50 up to about 1.1 µM and inactive = higher.
Tests used:
Assay in all cases: NCI anticancer screen, dose series, 48 h
786-0 = test system: 786-0
A498 = test system: A498
A549 = test system: A549
ACHN = test system: ACHN
BT-549 = test system: BT-549
CAKI-1 = test system: CAKI-1
CCRF-CEM = test system: CCRF-CEM
COLO 205 = test system: COLO 205
DU-145 = test system: DU-145
EKVX = test system: EKVX
HCT-116 = test system: HCT-116
HCT-15 = test system: HCT-15
HL-60 = test system: HL-60
HOP-62 = test system: HOP-62
HOP-92 = test system: HOP-92
HT-29 = test system: HT-29
Hs-578T = test system: Hs-578T
IGROV-1 = test system: IGROV-1
K562 = test system: K562
KM12 = test system: KM12
LOX IMVI = test system: LOX IMVI
M14 = test system: M14
MCF7 = test system: MCF7
MDA-MB-231 = test system: MDA-MB-231
MDA-MB-435 = test system: MDA-MB-435
MDA-N = test system: MDA-N
MOLT-4 = test system: MOLT-4
Malme-3M = test system: Malme-3M
NCI-H226 = test system: NCI-H226
NCI-H23 = test system: NCI-H23
NCI-H460 = test system: NCI-H460
NCI-H522 = test system: NCI-H522
NCI/ADR-RES = test system: NCI/ADR-RES
OVCAR-3 = test system: OVCAR-3
OVCAR-4 = test system: OVCAR-4
OVCAR-5 = test system: OVCAR-5
OVCAR-8 = test system: OVCAR-8
PC-3 = test system: PC-3
RPMI-8226 = test system: RPMI-8226
RXF 393 = test system: RXF 393
SF-268 = test system: SF-268
SF-295 = test system: SF-295
SF-539 = test system: SF-539
SK-MEL-28 = test system: SK-MEL-28
SK-MEL-2 = test system: SK-MEL-2
SK-MEL-5 = test system: SK-MEL-5
SK-OV-3 = test system: SK-OV-3
SNB-19 = test system: SNB-19
SNB-75 = test system: SNB-75
SR = test system: SR
SW-620 = test system: SW-620
T47D = test system: T47D
TK-10 = test system: TK-10
U-251 = test system: U-251
UACC-257 = test system: UACC-257
UACC-62 = test system: UACC-62
UO-31 = test system: UO-31
SN12C = test system: SN12C

Measured: GI50

O=S(=O)(O)c1ccc2cc(/N=N\c3cc(S(=O)(=O)O)c4cccnc4c3O)ccc2c1
inactive: 786-0 > 100 µM | A498 > 100 µM | A549 > 100 µM | ACHN > 100 µM | BT-549 > 100 µM | CAKI-1 > 100 µM | CCRF-CEM 29.7 µM | COLO 205 > 100 µM | DU-145 > 100 µM | EKVX > 100 µM | HCT-116 > 100 µM | HL-60 1.61 µM | HOP-62 > 100 µM | HOP-92 > 100 µM | HT-29 > 100 µM | Hs-578T > 100 µM | IGROV-1 > 100 µM | K562 > 100 µM | KM12 > 100 µM | LOX IMVI > 100 µM | M14 > 100 µM | MCF7 > 100 µM | MDA-MB-231 > 100 µM | MDA-MB-435 > 100 µM | MDA-N > 100 µM | MOLT-4 > 100 µM | Malme-3M > 100 µM | NCI-H226 > 100 µM | NCI-H23 > 100 µM | NCI-H460 > 100 µM | NCI-H522 > 100 µM | NCI/ADR-RES > 100 µM | OVCAR-3 > 100 µM | OVCAR-4 > 100 µM | OVCAR-5 > 100 µM | OVCAR-8 > 100 µM | PC-3 > 100 µM | RPMI-8226 > 100 µM | RXF 393 > 100 µM | SF-268 > 100 µM | SF-295 > 100 µM | SF-539 > 100 µM | SK-MEL-28 > 100 µM | SK-MEL-2 > 100 µM | SK-MEL-5 > 100 µM | SK-OV-3 > 100 µM | SNB-19 > 100 µM | SNB-75 > 100 µM | SR > 100 µM | SW-620 > 100 µM | T47D > 100 µM | TK-10 > 100 µM | U-251 > 100 µM | UACC-257 > 100 µM | UACC-62 > 100 µM | UO-31 > 100 µM
> 100 µM: HCT-15

C/C=C/C=C\C=C/C(O)C(C)C(CCC(C)C1OC(=O)C=CC1C)OP(=O)(O)O (centres undefined)
active: 786-0 0.404 µM | A498 0.22 µM | A549 0.538 µM | ACHN 0.351 µM | BT-549 0.224 µM | CAKI-1 0.136 µM | CCRF-CEM 0.243 µM | COLO 205 0.268 µM | DU-145 0.399 µM | EKVX 0.447 µM | HCT-116 0.251 µM | HL-60 0.0425 µM | HOP-62 0.303 µM | HOP-92 0.244 µM | HT-29 0.376 µM | IGROV-1 0.275 µM | K562 0.183 µM | KM12 0.318 µM | LOX IMVI 0.314 µM | M14 0.229 µM | MCF7 0.272 µM | MDA-MB-435 0.133 µM | MDA-N 0.296 µM | MOLT-4 0.275 µM | Malme-3M 0.232 µM | NCI-H226 0.614 µM | NCI-H460 0.4 µM | NCI/ADR-RES 0.897 µM | OVCAR-3 0.182 µM | OVCAR-5 0.263 µM | OVCAR-8 0.451 µM | PC-3 0.23 µM | RPMI-8226 0.127 µM | RXF 393 0.527 µM | SF-268 0.59 µM | SF-295 0.287 µM | SF-539 0.461 µM | SK-MEL-28 0.804 µM | SK-MEL-2 0.692 µM | SK-MEL-5 0.658 µM | SK-OV-3 0.502 µM | SN12C 0.323 µM | SNB-19 0.562 µM | SNB-75 0.986 µM | SR 0.176 µM | SW-620 0.479 µM | T47D 0.386 µM | TK-10 0.618 µM | U-251 0.893 µM | UACC-62 0.319 µM | UO-31 0.399 µM
0.445 µM: HCT-15
inactive: Hs-578T 1.42 µM | MDA-MB-231 35.8 µM | NCI-H23 1.52 µM | NCI-H522 1.35 µM | OVCAR-4 1.23 µM | UACC-257 1.15 µM

CCCCC(=O)/C=c1/cc(C)[nH]c2cccc3cnn1c32
> 100 µM: HCT-15
inactive: 786-0 > 100 µM | A498 > 100 µM | A549 > 100 µM | ACHN > 100 µM | BT-549 > 100 µM | CAKI-1 > 100 µM | CCRF-CEM > 100 µM | COLO 205 > 100 µM | DU-145 > 100 µM | EKVX > 100 µM | HCT-116 > 100 µM | HL-60 > 100 µM | HOP-62 > 100 µM | HOP-92 68.9 µM | HT-29 60.1 µM | Hs-578T > 100 µM | IGROV-1 > 100 µM | KM12 > 100 µM | LOX IMVI > 100 µM | M14 > 100 µM | MCF7 > 100 µM | MDA-MB-231 > 100 µM | MDA-MB-435 64 µM | MDA-N > 100 µM | MOLT-4 > 100 µM | Malme-3M > 100 µM | NCI-H226 > 100 µM | NCI-H23 > 100 µM | NCI-H522 > 100 µM | NCI/ADR-RES > 100 µM | OVCAR-3 > 100 µM | OVCAR-4 > 100 µM | OVCAR-5 > 100 µM | OVCAR-8 > 100 µM | PC-3 49.1 µM | RPMI-8226 61.9 µM | SF-268 > 100 µM | SF-295 > 100 µM | SF-539 > 100 µM | SK-MEL-28 > 100 µM | SK-MEL-2 > 100 µM | SK-MEL-5 > 100 µM | SK-OV-3 > 100 µM | SN12C > 100 µM | SNB-19 > 100 µM | SR 48 µM | SW-620 > 100 µM | T47D 16 µM | TK-10 > 100 µM | U-251 > 100 µM | UACC-257 > 100 µM | UACC-62 > 100 µM | UO-31 > 100 µM
